Values of other authors in patent US20070292469A1, “Antimicrobial composition” (priority 2005, published 2007).

Tested on: wide range of microorganisms
Conditions: literature statement (Block, Disinfection, Sterilization, and Preservation 4th ed. 1991)

Substance: α-4-[1-tris(2-hydroxyethyl) ammonium-2-butenyl] poly[1-dimethylammonium-2-butenyl]-ω-tris(2-hydroxyethyl)ammonium chloride [polyquaternium 1]
- antimicrobial activity: significant antimicrobial activity

Substance: monoethanolamines
- antimicrobial activity: lack dramatic antimicrobial activity
